Data from publication PMC5919610, “Structural basis of product inhibition by arabinose and xylose of the thermostable GH43 β-1,4-xylosidase from Geobacillus thermoleovorans IT-08” (PLoS ONE, 2018).

Molecular target: T1, Xyl (GH43 β-1,4-xylosidase from Geobacillus thermoleovorans IT-08) (Geobacillus thermoleovorans, UniProt Q2I2N4)
T1 construct: complete Xyl (511 residues; 61,533 Da); E. coli BL21 (DE3), plasmid pET-xyl; one molecule per asymmetric unit, probably dimer in solution (PISA)
T1 sequence (Q2I2N4 1-511): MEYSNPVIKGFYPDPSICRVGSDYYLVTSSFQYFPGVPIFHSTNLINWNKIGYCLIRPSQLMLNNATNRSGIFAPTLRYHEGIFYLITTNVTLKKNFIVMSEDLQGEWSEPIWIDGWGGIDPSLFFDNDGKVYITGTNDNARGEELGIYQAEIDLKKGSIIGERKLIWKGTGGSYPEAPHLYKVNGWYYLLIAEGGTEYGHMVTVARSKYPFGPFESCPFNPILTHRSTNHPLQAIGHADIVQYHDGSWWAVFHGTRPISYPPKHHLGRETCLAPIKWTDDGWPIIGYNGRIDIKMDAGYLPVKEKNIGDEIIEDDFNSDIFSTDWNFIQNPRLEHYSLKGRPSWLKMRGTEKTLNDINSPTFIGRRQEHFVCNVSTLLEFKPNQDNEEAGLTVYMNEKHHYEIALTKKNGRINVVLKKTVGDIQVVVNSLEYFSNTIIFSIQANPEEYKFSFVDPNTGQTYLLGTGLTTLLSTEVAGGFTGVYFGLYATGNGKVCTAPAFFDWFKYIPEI
Assay: X-ray crystal structure of soaked crystal
Type: binding
Conditions: 500 mM L-arabinose soak, 10 min, pH 7.0, 283 K; 2.10 Å; active site subsite -1; same site in ternary complex with D-xylose (5Z5I, 1.70 Å)

OC[C@@H]1O[C@H](O)[C@H](O)[C@H]1O [L-arabinose]
X-ray crystal structure of soaked crystal: arabinose was only found in subsite -1
